Measured values taken from patent US9682965B2, “Fumagillol heterocyclic compounds and methods of making and using same” (Zafgen, Inc., priority 2015, dated 2017).
Counter-ions that a name gives are not always drawn.

How the values were obtained:
[1] = test system: Diet Induced Obese (DIO) C57BL/6 mice; experiment: 10 day DIO mouse model (body weight, food intake, hematology, blood chemistry); format: in vivo; conditions: 240 h; DIO mouse, 0.3 mpk sc, once a day for 10 days; read-out: DIO Mouse 10-day weight loss vs vehicle
Source text: The objective of this study design was to investigate the efficacy of disclosed compounds in a 10 day DIO mouse model. Effects on body weight, food intake, hematology and blood chemistry were the primary readouts of this study design. […] Mice were fed Research Diets D12492 (60% Kcal fat, 20% Kcal carbohydrate and 20% protein) and provided water ad libitum. DIO mice were received and housed in the facility for approximately two weeks prior to the start of test article administration. On Day −4 or −3, mice were randomized into study groups based on body weight and body weights were continued to be recorded daily for the duration of the study. Daily food intake was assessed starting on Study Day −2 by weighing of the food with hopper together to avoid loss of food in transfer.
(§1) Compounds were formulated into a 100% DMSO stock (at 9 mg/mL) prior to the start, and further diluted into the target working concentration using the vehicle of 10% DMSO in water. Prior to test article administration, starting on Day −3 a dosing acclimation occured with all animals receiving a subcutaneous injection of vehicle (10% DMSO) only for 3 days. Starting on Day 1, test compounds or vehicle were administered based on individual body weight, subcutaneously, once a day for 10 days. All mice were sacrificed on Day 11, 24 hours following the final dosing on Day 10. After sacrifice, whole blood was collected and analyzed for hematology and blood chemistry parameters.
(§2) Compounds were tested vs. vehicle at various doses (1.0, 0.5, 0.3, 0.1, 0.03 mpk sc (mg per kg animal weight delivered subcutaneously), and the results are shown in Table 2 below.

[2] = test system: Male Sprague Dawley rats on high fat diet; experiment: 11 day rat DIO model (body weight, food intake, hematology, blood chemistries); format: in vivo; conditions: 264 h, DIO rat, once a day for 11 days, read-out: DIO Rat 11-day weight loss vs vehicle; for inhibition in vivo at 0.3 mg/kg: 0.3 mpk sc; for inhibition in vivo at 1 mg/kg: 1.0 mpk sc
Source text: The objective of this study design is to investigate the efficacy of disclosed compounds in an 11 day rat DIO model used to screen compounds for pharmacologic efficacy on endpoints related to obesity and metabolism. Effects on body weight, food intake, hematology and blood chemistries were the primary readouts of this study design. […] Rats were fed Research Diets D12451 (45% High Fat) and provided water ad libitum. Rats were received and housed in the facility for at least two or three weeks prior to start of test article administration. On Day −4 or −3, rats were randomized into study groups based on body weight and body weights were continued to be recorded daily for the duration of the study. Daily food intake was assessed starting on Study Day −2 by weighing the hopper including the food to avoid loss of food in transfer.
as §1, with “for 11” for “for 10”, “All animals” for “All mice”, “11, approximately 2” for “11, 24”, “Day 11.” for “Day 10.”
as §2

`CO[C@@H]1[C@H](OC(=O)N2CCC(CCN3CC(F)(F)C3)C2)CC[C@]2(CO2)[C@H]1[C@@]1(C)O[C@@H]1CC=C(C)C` (stereo in doubt) [Example 57, (R)-(3R,4S,5S,6R)-5-methoxy-4-((2R,3R)-2-methyl-3-(3-methylbut-2-en-1-yl)oxiran-2-yl)-1-oxaspiro[2.5]octan-6-yl 3-(2-(3,3-difluoroazetidin-1-yl)ethyl)pyrrolidine-1-carboxylate] was tested, and the inhibition in vivo at 0.3 mg/kg [1] was 17.4% and the inhibition in vivo at 0.3 mg/kg [2] was 5.3%.
In the case of `CO[C@@H]1[C@H](OC(=O)N2CC(CCn3cccn3)C2)CC[C@]2(CO2)[C@H]1[C@@]1(C)O[C@@H]1CC=C(C)C` [Example 17, (3R,4S,5S,6R)-5-methoxy-4-((2R,3R)-2-methyl-3-(3-methylbut-2-enyl)oxiran-2-yl)-1-oxaspiro[2.5]octan-6-yl 3-(2-(1H-pyrazol-1-yl)ethyl)azetidine-1-carboxylate], the inhibition in vivo at 0.3 mg/kg [1] is reported as 12.6% and the inhibition in vivo at 0.3 mg/kg [2] is reported as 5.1%.
`CO[C@@H]1[C@H](OC(=O)N2CC(CCN3CCN(CC(F)F)CC3)C2)CC[C@]2(CO2)[C@H]1[C@@]1(C)O[C@@H]1CC=C(C)C` [Example 34, (3R,4S,5S,6R)-5-methoxy-4-((2R,3R)-2-methyl-3-(3-methylbut-2-en-1-yl)oxiran-2-yl)-1-oxaspiro[2.5]octan-6-yl 3-(2-(4-(2,2-difluoroethyl)piperazin-1-yl)ethyl)azetidine-1-carboxylate] gave an inhibition in vivo at 0.3 mg/kg [1] of 9.3% and an inhibition in vivo at 0.3 mg/kg [2] of 5.1%.
`CO[C@@H]1[C@H](OC(=O)N2CC[C@@H](CN3CCOCC3)C2)CC[C@]2(CO2)[C@H]1[C@@]1(C)O[C@@H]1CC=C(C)C` [Example 37, (S)-(3R,4S,5S,6R)-5-methoxy-4-((2R,3R)-2-methyl-3-(3-methylbut-2-en-1-yl)oxiran-2-yl)-1-oxaspiro[2.5]octan-6-yl 3-(morpholinomethyl)pyrrolidine-1-carboxylate formate] showed an inhibition in vivo at 0.3 mg/kg [1] of 11.1% and an inhibition in vivo at 0.3 mg/kg [2] of 5.3%.
For `CCN(CC)C[C@@H]1CCN1C(=O)O[C@@H]1CC[C@]2(CO2)[C@@H]([C@@]2(C)O[C@@H]2CC=C(C)C)[C@@H]1OC` [Example 40, (S)-((3R,4S,5S,6R)-5-methoxy-4-((2R,3R)-2-methyl-3-(3-methylbut-2-enyl)oxiran-2-yl)-1-oxaspiro[2.5]octan-6-yl) 2-((diethylamino)methyl)azetidine-1-carboxylate formate], the inhibition in vivo at 0.3 mg/kg [1] was 6%, the inhibition in vivo at 0.3 mg/kg [2] was 0.08% and the inhibition in vivo at 1 mg/kg [2] was 4.73%.
For `CCN(CC)C[C@H]1CCN1C(=O)O[C@@H]1CC[C@]2(CO2)[C@@H]([C@@]2(C)O[C@@H]2CC=C(C)C)[C@@H]1OC` [Example 43, (R)-((3R,4S,5S,6R)-5-methoxy-4-((2R,3R)-2-methyl-3-(3-methylbut-2-enyl)oxiran-2-yl)-1-oxaspiro[2.5]octan-6-yl) 2-((diethylamino)methyl)azetidine-1-carboxylate formate], the inhibition in vivo at 0.3 mg/kg [1] was 2.7%, the inhibition in vivo at 0.3 mg/kg [2] was 0.35% and the inhibition in vivo at 1 mg/kg [2] was 2.9%.
`CO[C@@H]1[C@H](OC(=O)N2CC(CCN3CCC(F)(F)C3)C2)CC[C@]2(CO2)[C@H]1[C@@]1(C)O[C@@H]1CC=C(C)C` [Example 45, (3R,4S,5S,6R)-5-methoxy-4-((2R,3R)-2-methyl-3-(3-methylbut-2-enyl)oxiran-2-yl)-1-oxaspiro[2.5]octan-6-yl 3-(2-(3,3-difluoropyrrolidin-1-yl)ethyl)azetidine-1-carboxylate] showed an inhibition in vivo at 0.3 mg/kg [1] of 16.8% and an inhibition in vivo at 0.3 mg/kg [2] of 5.2%.
`CCN(CC)C[C@@H]1CCCN1C(=O)O[C@@H]1CC[C@]2(CO2)[C@@H]([C@@]2(C)O[C@@H]2CC=C(C)C)[C@@H]1OC` [Example 48, (S)-((3R,4S,5S,6R)-5-methoxy-4-((2R,3R)-2-methyl-3-(3-methylbut-2-enyl)oxiran-2-yl)-1-oxaspiro[2.5]octan-6-yl) 2-((diethylamino)methyl)pyrrolidine-1-carboxylate formate] gave an inhibition in vivo at 0.3 mg/kg [1] of 7.2%, an inhibition in vivo at 0.3 mg/kg [2] of 0.65% and an inhibition in vivo at 1 mg/kg [2] of 7.88%.
`CO[C@@H]1[C@H](OC(=O)N2CC[C@H](CCN3CCOCC3)C2)CC[C@]2(CO2)[C@H]1[C@@]1(C)O[C@@H]1CC=C(C)C` [Example 54, (S)-((3R,4S,5S,6R)-5-methoxy-4-((2R,3R)-2-methyl-3-(3-methylbut-2-enyl)oxiran-2-yl)-1-oxaspiro[2.5]octan-6-yl) 3-(2-morpholinoethyl)pyrrolidine-1-carboxylate] gave an inhibition in vivo at 0.3 mg/kg [1] of 16.4% and an inhibition in vivo at 0.3 mg/kg [2] of 7.3%.
Work on `CO[C@@H]1[C@H](OC(=O)N2CC[C@@H](CCN3CCOCC3)C2)CC[C@]2(CO2)[C@H]1[C@@]1(C)O[C@@H]1CC=C(C)C` [Example 55, (R)-(3R,4S,5S,6R)-5-methoxy-4-((2R,3R)-2-methyl-3-(3-methylbut-2-en-1-yl)oxiran-2-yl)-1-oxaspiro[2.5]octan-6-yl 3-(2-morpholinoethyl)pyrrolidine-1-carboxylate] yielded an inhibition in vivo at 0.3 mg/kg [1] of 12.2% and an inhibition in vivo at 0.3 mg/kg [2] of 7.5%.
For `CCN(CC)C[C@H]1CCCN1C(=O)O[C@@H]1CC[C@]2(CO2)[C@@H]([C@@]2(C)O[C@@H]2CC=C(C)C)[C@@H]1OC` [Example 60, (R)-((3R,4S,5S,6R)-5-methoxy-4-((2R,3R)-2-methyl-3-(3-methylbut-2-enyl)oxiran-2-yl)-1-oxaspiro[2.5]octan-6-yl) 2-((diethylamino)methyl)pyrrolidine-1-carboxylate formate], the inhibition in vivo at 0.3 mg/kg [1] was 6.3%, the inhibition in vivo at 0.3 mg/kg [2] was 1.95% and the inhibition in vivo at 1 mg/kg [2] was 7.79%.
In the case of `CNC(=O)OCC1CN(C(=O)O[C@@H]2CC[C@]3(CO3)[C@@H]([C@@]3(C)O[C@@H]3CC=C(C)C)[C@@H]2OC)C1` [Example 69, (3R,4S,5S,6R)-5-methoxy-4-((2R,3R)-2-methyl-3-(3-methylbut-2-enyl)oxiran-2-yl)-1-oxaspiro[2.5]octan-6-yl 3-((methylcarbamoyloxy)methyl)azetidine-1-carboxylate], the inhibition in vivo at 0.3 mg/kg [1] is reported as 12.7% and the inhibition in vivo at 0.3 mg/kg [2] is reported as 2.1%.
For `CO[C@@H]1[C@H](OC(=O)N2CC(CC3CCN(CC(F)F)CC3)C2)CC[C@]2(CO2)[C@H]1[C@@]1(C)O[C@@H]1CC=C(C)C` [Example 94, (3R,4S,5S,6R)-5-methoxy-4-((2R,3R)-2-methyl-3-(3-methylbut-2-enyl)oxiran-2-yl)-1-oxaspiro[2.5]octan-6-yl 3-((1-(2,2-difluoroethyl)piperidin-4-yl)methyl)azetidine-1-carboxylate], the inhibition in vivo at 0.3 mg/kg [1] was 22.5%.
With `CO[C@@H]1[C@H](OC(=O)N2CC(=CCN3CCOCC3)C2)CC[C@]2(CO2)[C@H]1[C@@]1(C)O[C@@H]1CC=C(C)C` [Example 96, (3R,4S,5S,6R)-5-methoxy-4-((2R,3R)-2-methyl-3-(3-methylbut-2-enyl)oxiran-2-yl)-1-oxaspiro[2.5]octan-6-yl 3-(2-morpholinoethylidene)azetidine-1-carboxylate] the inhibition in vivo at 0.3 mg/kg [1] was 18.6%.
With `CO[C@@H]1[C@H](OC(=O)N2CC(=CCN3CCN(CC(F)F)CC3)C2)CC[C@]2(CO2)[C@H]1[C@@]1(C)O[C@@H]1CC=C(C)C` [Example 97, (3R,4S,5S,6R)-5-methoxy-4-((2R,3R)-2-methyl-3-(3-methylbut-2-enyl)oxiran-2-yl)-1-oxaspiro[2.5]octan-6-yl 3-(2-(4-(2,2-difluoroethyl)piperazin-1-yl)ethylidene)azetidine-1-carboxylate] the inhibition in vivo at 0.3 mg/kg [1] was 21.3%.
In the case of `CO[C@@H]1[C@H](OC(=O)N2CC(Oc3ccccn3)C2)CC[C@]2(CO2)[C@H]1[C@@]1(C)O[C@@H]1CC=C(C)C` [Example 99, (3R,4S,5S,6R)-5-methoxy-4-((2R,3R)-2-methyl-3-(3-methylbut-2-enyl)oxiran-2-yl)-1-oxaspiro[2.5]octan-6-yl 3-(pyridin-2-yloxy)azetidine-1-carboxylate], the inhibition in vivo at 0.3 mg/kg [1] is reported as 22.9%.
Molecule `CO[C@@H]1[C@H](OC(=O)N2CC(CCC3CCN(CC(F)F)CC3)C2)CC[C@]2(CO2)[C@H]1[C@@]1(C)O[C@@H]1CCC(C)C` [Example 128, (3R,4S,5S,6R)-4-((2R,3R)-3-isopentyl-2-methyloxiran-2-yl)-5-methoxy-1-oxaspiro[2.5]octan-6-yl 3-(2-(1-(2,2-difluoroethyl)piperidin-4-yl)ethyl)azetidine-1-carboxylate] has an inhibition in vivo at 0.3 mg/kg [1] of 15.2%.
